Measurements taken from US20160000851A1, “Bioactive Botanical Compositions and Uses Thereof” (AKZO NOBEL CHEMICALS INTERNATIONAL B.V., priority 2013, published 2016).
≈ marks a conversion by molar mass, not a printed value.

Assays:
Type in all cases: cell-based
[1] = test system: IL-8; assay: Inhibition of SDS-induced IL-8 release in human epidermal keratinocytes (ELISA); settings: HEK, SDS 6 μg/ml, 16 hours
Experimental: The protocols for the growth and treatment of human primary epidermal keratinocyte (HEK) cultures are as follows. HEK and all cell culture supplies were obtained from Life Technologies Co. (Carlsbad, Calif.). The cells were maintained in keratinocyte growth medium (KGM), which contains keratinocyte basal medium 154 (M154) and human keratinocyte growth supplements (HKGS). They were grown at 37° C. in an atmosphere of 5% (v/v) CO2 and used between passages from 2 to 4. For the treatment, keratinocytes were trypsinized by Trypsin 0.025%/EDTA 0.01% in Phosphate Buffered Saline, seeded in 96-well plates, and grown in KGM to about 80% confluence. The cells were then exposed to SDS (Sigma-Aldrich Co., St. Louis, Mo.) at various concentrations for about 16 hours. After incubation, the supernatants were collected, and IL-1α and IL-8 were quantified using Quantikine® ELISA (R&D Systems, Minneapolis, Minn.). […] IC50 was calculated using sigmoidal curve fitting with SigmaPlot Version 10.0 (Systat Software). […]
Treatment was conducted by incubation of HEK with SDS (25 μg/ml for induction of IL-1α or 6 μg/ml for induction of IL-8 as determined in Example 1) for 16 hours in presence of a range of concentrations of Recentia® CS, or conventional green tea preparation, or conventional black tea preparation.

[2] = test system: IL-1α; assay: Inhibition of ethoxylated alcohol-induced IL-1α release in human epidermal keratinocytes (ELISA); settings: HEK, ethoxylated alcohol 1000 μg/ml, 16 hours
Experimental: Treatment was conducted by incubation of HEK with ethoxylated alcohol (1000 μg/ml for induction of IL-1α as determined in Example 3) for 16 hours in presence of a range of concentrations of Recentia® CS, or Aspirin.
Treatment was conducted by incubation of HEK with ethoxylated alcohol (500 μg/ml for induction of IL-1α, as determined in Example 3) for 16 hours in presence of a range of concentrations of Recentia® CS, or conventional green tea preparation or conventional black tea preparation.

[3] = test system: IL-1α; assay: Inhibition of SDS-induced IL-1α release in human epidermal keratinocytes (ELISA); settings: Keratinocyte, HEK, SDS 25 μg/ml, 16 hours, read-out: Estimated IC50 for inhibition of SDS-induced IL-1α release
[4] = test system: IL-8; assay: Inhibition of basal level non-induced IL-8 release in human epidermal keratinocytes; settings: HEK, 16 hours
Experimental: (§1) The protocols for the growth and treatment of human primary epidermal keratinocyte (HEK) cultures are as follows. HEK and all cell culture supplies were obtained from Life Technologies Co. (Carlsbad, Calif.). The cells were maintained in keratinocyte growth medium (KGM), which contains keratinocyte basal medium 154 (M154) and human keratinocyte growth supplements (HKGS). They were grown at 37° C. in an atmosphere of 5% (v/v) CO2 and used between passages from 2 to 4. For the treatment, keratinocytes were trypsinized by Trypsin 0.025%/EDTA 0.01% in Phosphate Buffered Saline, seeded in 96-well plates, and grown in KGM to about 80% confluence. The cells were then exposed to SDS (Sigma-Aldrich Co., St. Louis, Mo.) at various concentrations for about 16 hours. After incubation, the supernatants were collected, and IL-1α and IL-8 were quantified using Quantikine® ELISA (R&D Systems, Minneapolis, Minn.). Results were presented as the mean±standard deviation. IC50 was calculated using sigmoidal curve fitting with SigmaPlot Version 10.0 (Systat Software). LDH (lactate dehydrogenase) assay (G-Biosciences, St. Louis, Mo.) was performed on all the supernatants to assess cytotoxicity.
The protocols for the growth of HEK are described under Example 1.

[5] = test system: human epidermal keratinocytes (HEK); assay: Mildness ranking of surfactants by LDH cytotoxicity and IL-1α release in HEK; settings: based on LDH cytotoxicity and IL-1α induction in HEK
Experimental: as §1, with “cytotoxicity. […]” for “cytotoxicity.”

[6] = test system: IL-1α; assay: Surfactant induction of IL-1α release in human epidermal keratinocytes; settings: HEK, 16 hours, SDS at 25 μg/ml
Experimental: as §1
(§2) The protocols for the growth of HEK are described under Example 1. Instead of SDS, the keratinocytes were exposed to a range of concentrations of ethoxylated alcohol for about 16 hours.

[7] = test system: IL-8; assay: Surfactant induction of IL-8 release in human epidermal keratinocytes; settings: HEK, 16 hours, SDS at 6 μg/ml
Experimental: as §1, §2

CC(=O)Oc1ccccc1C(=O)O [Aspirin]
Inhibition of SDS-induced IL-8 release (in words) [1]: did not inhibit SDS-induced release of inflammatory chemokine IL-8 | Inhibition of ethoxylated alcohol-induced IL-1α release (in words) [2]: failed to inhibit IL-1α release induced by the ethoxylated alcohol | IC50 [3]: ~230 µg/mL (≈ 1280 µM)

C[S+]([O-])c1ccc(-c2nc(-c3ccncc3)c(-c3ccc(F)cc3)[nH]2)cc1 (stereo not shown) [SB203580]
Inhibition of basal level non-induced IL-8 release (in words) [4]: inhibited SDS-induced IL-8 only

CCCCCCCCCCCCOS(=O)(=O)[O-].[Na+] [SDS, Sodium Dodecyl Sulfate]
Mildness/harshness rank among six tested surfactants [5]: close to the harshest surfactant | Induction of IL-1α release by surfactant [6]: significant (p<0.001) induction of IL-1α | Induction of IL-8 release by surfactant [7]: significant (p<0.001) induction of IL-8
